According to US20130237610A1, “DYNAMIC BALANCING OF AUTONOMIC NERVOUS SYSTEM THROUGH VITAMIN MK-7” (priority 2010, published 2013):

How the values were obtained:
healthy male volunteers = test: ANS activity (sympathovagal balance) measured by ANSiscope in healthy male volunteers; type: in vivo, human; settings: for general and systemic examination, Blood Pressure (Supine), pulse: 350 μg per day, 2 months; for percentage of ANS dysfunction / stage of ANS dysfunction: 1 cap per day of 350 μg, end of 2 months
Experimental: […] ANS activity was measured and printed out in a graph form by the ANSiscope™, manufactured by DyAnsys a US based company. The instrument is US FDA approved patented instrument. This instrument assessed the autonomic function by calculating 500 Heart beats/RR intervals. After assessing this, the instrument will analyze the level of the dysfunction and the degree of autonomic neuropathy. For this reason they have classified autonomic dysfunction in 5 stages, namely Healthy (H), Early (E), Late (L), Advanced (A) and Most Advanced (MA). The percentage calculation values demarcating groups are: −11.5% to 11.5%: healthy group, 13.5% to 20%: early group, 23% to 50.99%: late group, 51% to 100%: advanced group and above falls in Most advance group.
The study parameters assessed were sympathetic and parasympathetic tone, change in blood pressure (orthostatic intolerance, measured at right. brachial artery), pulse (assessed by measuring the pulse at right. radial artery) and physical and general examination. Study was performed on subjects in relaxed supine position without any external stimulation, usually 2 hrs. after breakfast during morning time for 2 consecutive months.
Subjects who have Blood pressure beyond the range of 140/90 (supine) and 100/70 (standing) mm Hg, and Sugar Fasting more than 250 mg % and with any major illness are ruled out of study. All subjects were checked for baseline parameters on 0 day. Vitamin K2-7 (MK-7) in dose of 350 μg was administered on 3rd day after the baseline reading. MK-7 was continued for 2 months. Readings were taken on 3rd day, 15th day, 28st day, 50th day, 56th day and at 62nd day.

rats = test: Chronic toxicity study, ECG of rats; type: in vivo; settings: rat ECG
Source text: In another study on animal model during chronic toxicity study, it was discovered that MK-7 produces significant changes in ECG of rats. This discovery during basic pharmacology studies on MK-7 was investigated for its effect on Cardio Vascular System. It is during this study the investigator discovered the following findings (FIGS. 5 and 6).
The main parameter which was observed during chronic toxicity studies in rat ECG was the prolongation of QT interval.

ISO injected rats = test: Isoproterenol (ISO) induced cardiac injury model; type: in vivo, rat
Experimental: During the yet another study conducted to assess the cardioprotective effect of vitamin K2-7, inventors of the current invention observe that the vitamin K2-7 improves the cardiac output parameters. Isoproterenol (ISO) induced cardiac injury model was selected for the study. It was observed that ISO induced cardiac output decrease in all the dose levels i.e. at 90 μg/kg, 450 μg/kg and 900 μg/kg. […] This effects was non-linear and was enhanced in 900 μg/kg dose.
Effect of vitamin K2-7 on the left cardiac work has been evaluated in the same study. It was observed that administration of ISO leads to marked decrease in left cardiac work when measured 48 h after ISO injection in comparison to pre ISO level i.e. control.
In the same study it was also observed that vitamin K2-7 enhances the High Density Lipoprotein (HDL) level in all the dose levels studied i.e. at 90 μg/kg, 450 μg/kg and 900 μg/kg. Isoproterenol (ISO) induced cardiac injury model was selected for the study. […] HDL cholesterol level for the treated group increased in comparison to the ISO controlled group. The observed increase was greater with respect to the dose level increased.

## CC(C)=CCC/C(C)=C/CC/C(C)=C/CC/C(C)=C/CC/C(C)=C/CC/C(C)=C/CC/C(C)=C/CC1=C(C)C(=O)c2ccccc2C1=O [MK-7]
Healthy male volunteers; 350 μg for 2 months
  other parameters (blood pressure, pulse, physical and general examination): remained unaffected
Healthy male volunteers; person one
  general and systemic examination, Blood Pressure (Supine), pulse: in normal range without any change from base line records
Healthy male volunteers; person two
  general and systemic examination, Blood Pressure (Supine), pulse: in normal range without any change from base line records
Healthy male volunteers; 350 μg, after 2 months of therapy
  parasympathetic activity: little effect
Healthy male volunteers; 350 μg, after 2 months of therapy, initially elevated
  sympathetic activity: marked normalization
Healthy male volunteers; person one, baseline 61%
  percentage of ANS dysfunction: 31%
Healthy male volunteers; person one, baseline 'Advance stage'
  stage of ANS dysfunction: Early (13.5% to 20%: early group)
Healthy male volunteers; person two, baseline 25%
  percentage of ANS dysfunction: 21%
Healthy male volunteers; person two, baseline 'Late stage'
  stage of ANS dysfunction: Early (13.5% to 20%: early group)
rats
  PR interval: not affected to significant extent
  QTc change: moderate non-significant shortening
  heart rate: no increase
  prolongation of QTc: did not cause any prolongation
rats; 100, 500, 1000 μg/kg
  QT interval: remained unaffected
rats; 500, 1000 μg/kg
  QRS interval: significant shortening
  RR interval: significant prolongation
ISO injected rats; 90 μg/kg and 450 μg/kg
  ISO induced cardiac output decrease: reversed
ISO injected rats; 900 μg/kg
  ISO induced cardiac output decrease: enhanced
ISO injected rats; 900 μg/kg vs other treatment groups
  ISO induced left cardiac work decrease, reversal: higher than other treatment groups
ISO injected rats; 90, 450 and 900 μg/kg, 48 h after ISO injection, vs ISO control
  ISO induced left cardiac work decrease: reversed to a great extent
ISO injected rats; 90, 450 and 900 μg/kg, vs ISO control group
  HDL cholesterol level: increased
ISO injected rats; within 12 days, 90, 450 and 900 μg/kg
  blood sugar: reducing blood sugar
